Measured values reported in article PMC4868058, “A critical role for the Drosophila dopamine D1-like receptor Dop1R2 at the onset of metamorphosis” (BMC Developmental Biology, 2016).
Counter-ions that a name gives are not always drawn.

Tests used:
Dop1R2 [1] = biological target: T1, Dop1R2 (Drosophila melanogaster, UniProt Q24563); assay: CRE-luciferase reporter assay in transfected HEK293 cells; type: cell-based
T1 construct: receptor cDNA in pcDNA1.1, transiently expressed in HEK293 with CRE-luciferase reporter
T1 sequence (Q24563 1-539): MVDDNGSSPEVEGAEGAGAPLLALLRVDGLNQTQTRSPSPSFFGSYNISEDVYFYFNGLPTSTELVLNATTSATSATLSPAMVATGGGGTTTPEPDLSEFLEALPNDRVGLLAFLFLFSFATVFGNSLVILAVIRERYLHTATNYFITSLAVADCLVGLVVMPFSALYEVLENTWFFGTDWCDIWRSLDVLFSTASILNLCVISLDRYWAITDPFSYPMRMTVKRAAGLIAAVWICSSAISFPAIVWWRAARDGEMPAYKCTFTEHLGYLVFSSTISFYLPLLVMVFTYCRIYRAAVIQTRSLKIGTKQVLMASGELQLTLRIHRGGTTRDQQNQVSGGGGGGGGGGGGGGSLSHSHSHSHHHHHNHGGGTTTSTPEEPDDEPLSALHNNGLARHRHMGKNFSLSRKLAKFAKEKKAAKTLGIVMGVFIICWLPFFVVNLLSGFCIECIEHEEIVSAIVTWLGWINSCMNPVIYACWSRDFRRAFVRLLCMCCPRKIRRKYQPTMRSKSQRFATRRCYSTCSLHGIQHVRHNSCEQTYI

Dop1R2 [2] = biological target: T1, Dop1R2; assay: as above; type: cell-based; remark: listed apart in the source

EC50 (Dop1R2 [1])	IC50 (Dop1R2 [2])	SMILES
270 nM	–	NCCc1ccc(O)c(O)c1 [dopamine hydrochloride]
–	260 nM	OCCN1CCN(CCC=C2c3ccccc3Sc3ccc(C(F)(F)F)cc32)CC1 [flupenthixol dihydrochloride]
